Source: US20240368177A1, “5-AMINO-6,8-DIHYDRO-1H-FURO[3,4-d]PYRROLO[3,2-b]PYRIDINE-2-CARBOXAMIDE DERIVATIVES AS MTA-COOPERATIVE INHIBITORS OF PRMT5” (BeiGene Switzerland GmbH, priority 2023, published 2024)

Experiments:
[1] = tested on: HCT116-MTAP-KO; assay: Cell killing in HCT116 isogenic pair (Cell Titer-Glo viability), MTAP knock-out cells; assay type: cell-based, human; details: 6 days incubation, 0-10 μM, * = more than 50% viability inhibition at tested concentration without a full curve
Procedure, shortened: (§1)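 HCT116 MTAP-knockout or mock-knockout (MTAP wildtype) cells in RPMI 1640 with 10% FBS were seeded overnight, then exposed to test compound at 0–10 μM final for 6 days at 37° C. Viability was measured by CellTiter-Glo luminescence and IC50 was fitted.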

[2] = tested on: HCT116-mock-RNA-KO; assay: Cell killing in HCT116 isogenic pair (Cell Titer-Glo viability), mock knock-out cells with MTAP wildtype genotype; assay type: cell-based, human; details: 6 days incubation, 0-10 μM
Procedure, shortened: as §1

Structure (SMILES)	IC50 ([1]; Homo sapiens, HCT-116, 144 h)	IC50 ([2]; Homo sapiens, HCT-116, 144 h)	IC50 [1]	IC50 [2]
CN(C(=O)c1cc2nc(N)c3c(c2[nH]1)COC3)[C@@H]1COC2(CC2)c2cc(C(F)(F)F)cc(F)c21 [Example 168, (S)-5-amino-N-(5′-fluoro-7′-(trifluoromethyl)spiro[cyclopropane-1,1′-isochroman]-4′-yl)-N-methyl-6,8-dihydro-1H-furo[3,4-d]pyrrolo[3,2-b]pyridine-2-carboxamide]	8.4 nM	2110 nM	–	–
C[C@H]1OCc2c1c(N)nc1cc(C(=O)N(C)[C@H]3COC4(CC4)c4cc(C(F)(F)F)cc(F)c43)[nH]c21 [Example 169, (R)-5-amino-N—((R)-5′-fluoro-7′-(trifluoromethyl)spiro[cyclopropane-1,1′-isochroman]-4′-yl)-N,6-dimethyl-6,8-dihydro-1H-furo[3,4-d]pyrrolo[3,2-b]pyridine-2-carboxamide]	565 nM	2110 nM	–	–
C[C@H]1OCc2c1c(N)nc1cc(C(=O)N(C)[C@@H]3COC4(CC4)c4cc(C(F)(F)F)cc(F)c43)[nH]c21 [Example 170, (R)-5-amino-N—((S)-5′-fluoro-7-(trifluoromethyl)spiro[cyclopropane-1,1′-isochroman]-4′-yl)-N,6-dimethyl-6,8-dihydro-1H-furo[3,4-d]pyrrolo[3,2-b]pyridine-2-carboxamide]	–	–	4.4 nM	1010 nM
C[C@H]1OCc2c1c(N)nc1cc(C(=O)N(C)[C@@H]3COC4(CC4)c4cc(C5CC5)ccc43)[nH]c21 [Example 171, (R)-5-amino-N—((S)-7′-cyclopropylspiro[cyclopropane-1,1′-isochroman]-4′-yl)-N,6-dimethyl-6,8-dihydro-1H-furo[3,4-d]pyrrolo[3,2-b]pyridine-2-carboxamide]	39 nM	3030 nM	–	–
CN(C(=O)c1cc2nc(N)c3c(c2[nH]1)COC3)[C@@H]1COC2(CC2)c2cc(C3CC3)ccc21 [Example 172, (S)-5-amino-N-(7′-cyclopropylspiro[cyclopropane-1,1′-isochroman]-4′-yl)-N-methyl-6,8-dihydro-1H-furo[3,4-d]pyrrolo[3,2-b]pyridine-2-carboxamide]	33 nM	5050 nM	–	–
C[C@H](c1ccc(C2CC2)cc1F)N(C)C(=O)c1cc2nc(N)c3c(c2[nH]1)COC3 [Example 173, (R)-5-amino-N-(1-(4-cyclopropyl-2-fluorophenyl)ethyl)-N-methyl-6,8-dihydro-1H-furo[3,4-d]pyrrolo[3,2-b]pyridine-2-carboxamide]	67 nM	5920 nM	–	–
C[C@@H](c1ccc(C2CC2)cc1F)N(C)C(=O)c1cc2nc(N)c3c(c2[nH]1)COC3 [Example 174, (S)-5-amino-N-(1-(4-cyclopropyl-2-fluorophenyl)ethyl)-N-methyl-6,8-dihydro-1H-furo[3,4-d]pyrrolo[3,2-b]pyridine-2-carboxamide]	478 nM	6070 nM	–	–
CCN(C(=O)c1cc2nc(N)c3c(c2[nH]1)CO[C@@H]3C)[C@H](C)c1ccc(C2CC2)cc1F [Example 175, (R)-5-amino-N—((R)-1-(4-cyclopropyl-2-fluorophenyl)ethyl)-N-ethyl-6-methyl-6,8-dihydro-1H-furo[3,4-d]pyrrolo[3,2-b]pyridine-2-carboxamide]	14 nM	704 nM	–	–
CCN(C(=O)c1cc2nc(N)c3c(c2[nH]1)CO[C@@H]3C)[C@@H](C)c1ccc(C2CC2)cc1F [Example 176, (R)-5-amino-N—((S)-1-(4-cyclopropyl-2-fluorophenyl)ethyl)-N-ethyl-6-methyl-6,8-dihydro-1H-furo[3,4-d]pyrrolo[3,2-b]pyridine-2-carboxamide]	452 nM	1780 nM	–	–
CCN(C(=O)c1cc2nc(N)c3c(c2[nH]1)COC3)[C@H](C)c1ccc(C2CC2)cc1F [Example 177, (R)-5-amino-N-(1-(4-cyclopropyl-2-fluorophenyl)ethyl)-N-ethyl-6,8-dihydro-1H-furo[3,4-d]pyrrolo[3,2-b]pyridine-2-carboxamide]	74 nM	2690 nM	–	–
CCN(C(=O)c1cc2nc(N)c3c(c2[nH]1)COC3)[C@@H](C)c1ccc(C2CC2)cc1F [Example 178, (S)-5-amino-N-(1-(4-cyclopropyl-2-fluorophenyl)ethyl)-N-ethyl-6,8-dihydro-1H-furo[3,4-d]pyrrolo[3,2-b]pyridine-2-carboxamide]	1040 nM	3270 nM	–	–
CN(C(=O)c1cc2nc(N)c3c(c2[nH]1)COC3)[C@@H]1COC2(CC2)c2cc(Br)ccc21 [Example 179, (S)-5-amino-N-(7′-bromospiro[cyclopropane-1,1′-isochroman]-4′-yl)-N-methyl-6,8-dihydro-1H-furo[3,4-d]pyrrolo[3,2-b]pyridine-2-carboxamide]	24 nM	4390 nM	–	–
C[C@H]1OCc2c1c(N)nc1cc(C(=O)N(C)[C@@H]3COC4(CC4)c4cc(Br)ccc43)[nH]c21 [Example 180, (R)-5-amino-N—((S)-7′-bromospiro[cyclopropane-1,1′-isochroman]-4′-yl)-N,6-dimethyl-6,8-dihydro-1H-furo[3,4-d]pyrrolo[3,2-b]pyridine-2-carboxamide]	20 nM	3570 nM	–	–
CN1CC[C@@H](N(C)C(=O)c2cc3nc(N)c4c(c3[nH]2)COC4)c2ccc(C(F)(F)F)cc21 [Example 181, (R)-5-amino-N-methyl-N-(1-methyl-7-(trifluoromethyl)-1,2,3,4-tetrahydroquinolin-4-yl)-6,8-dihydro-1H-furo[3,4-d]pyrrolo[3,2-b]pyridine-2-carboxamide]	15 nM	1800 nM	–	–
